Experiments:
[1] = target: Glycogen synthase kinase-3 beta (Homo sapiens, UniProt P49841)
Description: Binding affinity for human glycogen synthase kinase 3 beta

[2] = target: Cyclin-dependent kinase 2 (Homo sapiens, UniProt P24941)
[3] = target: Glycogen synthase kinase-3 beta (Rattus norvegicus, UniProt P18266); experiment: Effective concentration to increase glycogen deposition in rat skeletal muscle L6 myoblast cells; type: functional, cell-based
Glycogen synthase kinase-3 beta (Rattus norvegicus, UniProt P18266), sequence (P18266 whole entry): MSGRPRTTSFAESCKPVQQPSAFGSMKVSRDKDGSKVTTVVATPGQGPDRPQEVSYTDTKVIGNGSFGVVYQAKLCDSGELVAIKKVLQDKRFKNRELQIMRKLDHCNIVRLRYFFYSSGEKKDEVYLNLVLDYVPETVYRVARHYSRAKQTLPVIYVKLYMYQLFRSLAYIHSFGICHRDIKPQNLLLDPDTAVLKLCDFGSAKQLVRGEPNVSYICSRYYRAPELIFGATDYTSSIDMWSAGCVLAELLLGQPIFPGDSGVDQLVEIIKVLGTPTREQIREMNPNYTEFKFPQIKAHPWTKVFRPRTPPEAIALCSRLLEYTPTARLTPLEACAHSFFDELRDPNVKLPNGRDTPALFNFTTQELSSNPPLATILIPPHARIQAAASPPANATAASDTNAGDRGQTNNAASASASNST

Glycogen synthase kinase-3 beta (Homo sapiens, UniProt P49841), sequence (P49841 whole entry): as the sequence (P18266 whole entry) above, with M240V, P390T, A392T, T400A, A402T counted along it

IC50 [1] | IC50 [2] | EC50 [3] | SMILES
– | – | 2900 nM | c1ccc(Nc2nccc(-c3cnn4ncccc34)n2)cc1
10 nM | > 20000 nM | 2100 nM | FC(F)(F)c1cccc(Nc2nccc(-c3c(-c4ccccc4)nn4ncccc34)n2)c1
790 nM | > 20000 nM | – | Cc1ccc2c(-c3ccnc(Nc4ccccc4)n3)c(-c3cccc(C(F)(F)F)c3)nn2n1
– | 310 nM | 1000 nM | Clc1cc(Cl)cc(Nc2nccc(-c3cnn4ncccc34)n2)c1
– | 20 nM | – | O=[N+]([O-])c1ccc(Nc2nccc(-c3cnn4ncccc34)n2)cc1
70 nM | 20 nM | – | COc1ccc2c(-c3ccnc(Nc4ccc([N+](=O)[O-])cc4)n3)cnn2n1
310 nM | > 20000 nM | – | Fc1ccc(Nc2nccc(-c3c(-c4cccc(C(F)(F)F)c4)nn4ncccc34)n2)cc1F
30 nM | 100 nM | – | COc1ccc2c(-c3ccnc(Nc4ccc5c(c4)OCCO5)n3)cnn2n1
– | 10 nM | 1200 nM | COc1cc(Nc2nccc(-c3cnn4ncccc34)n2)cc(C(F)(F)F)c1
120 nM | 190 nM | – | COc1cc(Nc2nccc(-c3cnn4nc(OC)ccc34)n2)cc(OC)c1
– | – | 1300 nM | COc1cccc(Nc2nccc(-c3cnn4ncccc34)n2)c1 [PYRAZOLOPYRIDAZINE 1]
10 nM | 6 nM | – | Cc1ccc2c(-c3ccnc(Nc4ccc5c(c4)OCCO5)n3)cnn2n1
10 nM | 1 nM | – | Clc1ccc(Nc2nccc(-c3cnn4ncccc34)n2)cc1Cl
– | > 20000 nM | – | c1ccc(-c2nn3ncccc3c2-c2ccnc(Nc3ccc4c(c3)OCCO4)n2)cc1
> 20000 nM | > 20000 nM | – | Fc1ccc(Nc2nccc(-c3c(C4CCCCC4)nn4ncccc34)n2)cc1F
> 20000 nM | > 20000 nM | – | c1ccc(Nc2nccc(-c3c(C4CCCCC4)nn4ncccc34)n2)cc1
– | > 20000 nM | – | Clc1ccc(-c2nn3ncccc3c2-c2ccnc(Nc3ccccc3)n2)cc1 [GW829055X]
790 nM | > 20000 nM | – | Clc1ccc(-c2nn3ncccc3c2-c2ccnc(Nc3ccc4c(c3)OCCO4)n2)cc1
– | > 20000 nM | – | COc1ccc(-c2nn3ncccc3c2-c2ccnc(Nc3ccc(F)c(F)c3)n2)cc1 [GW827396X]
100 nM | 60 nM | – | COc1cccc(Nc2nccc(-c3cnn4nc(OC)ccc34)n2)c1
30 nM | > 20000 nM | 3400 nM | Cc1ccc2c(-c3ccnc(Nc4ccc(F)c(F)c4)n3)c(-c3ccccc3)nn2n1

IC50 [1] | IC50 [2] | EC50 [3] | SMILES
– | 1 nM | 1000 nM | Fc1cc(F)cc(Nc2nccc(-c3cnn4ncccc34)n2)c1
120 nM | 150 nM | – | CCC(C)c1ccc(Nc2nccc(-c3cnn4ncccc34)n2)cc1 (stereo unspecified)
> 31600 nM | > 20000 nM | – | Fc1ccc(Nc2nccc(-c3c(-c4ccc(C(F)(F)F)cc4)nn4ncccc34)n2)cc1F [GW828529X]
> 31600 nM | > 20000 nM | – | FC(F)(F)c1ccc(-c2nn3ncccc3c2-c2ccnc(Nc3cccc(C(F)(F)F)c3)n2)cc1
10 nM | 8 nM | – | Oc1ccc2c(-c3ccnc(Nc4cccc(C(F)(F)F)c4)n3)cnn2n1
– | > 20000 nM | – | COc1ccc(-c2nn3ncccc3c2-c2ccnc(Nc3cccc(C(F)(F)F)c3)n2)cc1 [GW827105X]
3160 nM | > 20000 nM | – | CCOc1ccc2c(-c3ccnc(Nc4cc(OC)cc(C(F)(F)F)c4)n3)cnn2n1 [GW807982X]
10 nM | > 20000 nM | – | Fc1cc(F)cc(Nc2nccc(-c3c(-c4ccccc4)nn4ncccc34)n2)c1
10 nM | > 20000 nM | – | Fc1ccc(-c2nn3ncccc3c2-c2ccnc(Nc3ccc4c(c3)OCCO4)n2)cc1 [GW827099X]
50 nM | 190 nM | – | Cc1ccc2c(-c3ccnc(Nc4ccc(C(F)(F)F)cc4)n3)cnn2n1
10 nM | 20 nM | – | COc1cc(Nc2nccc(-c3cnn4nc(C)ccc34)n2)cc(C(F)(F)F)c1
– | > 20000 nM | – | Cc1ccc2c(-c3ccnc(Nc4ccc(F)c(F)c4)n3)c(-c3cccc(C(F)(F)F)c3)nn2n1
190 nM | 790 nM | – | COc1cc(Nc2nccc(-c3cnn4nc(OC)ccc34)n2)cc(C(F)(F)F)c1
100 nM | > 20000 nM | – | Cc1ccc2c(-c3ccnc(Nc4ccc(Cl)c(C(F)(F)F)c4)n3)c(-c3ccccc3)nn2n1
50 nM | 160 nM | – | COc1ccc2c(-c3ccnc(Nc4cccc(C(F)(F)F)c4)n3)cnn2n1
– | > 20000 nM | – | Cc1ccc2c(-c3ccnc(Nc4ccc(Cl)c(C(F)(F)F)c4)n3)c(-c3cccc(C(F)(F)F)c3)nn2n1
– | 2500 nM | – | FC(F)(F)c1cccc(Nc2nccc(-c3cnn4nc(-c5ccccc5)ccc34)n2)c1 [GW819077X]
10 nM | > 20000 nM | 4200 nM | Fc1ccc(Nc2nccc(-c3c(-c4ccccc4)nn4ncccc34)n2)cc1F
– | – | 800 nM | c1cnn2ncc(-c3ccnc(Nc4ccc5c(c4)OCCO5)n3)c2c1 [GW806290X]
150 nM | 5000 nM | – | Cc1ccc2c(-c3ccnc(Nc4ccc5c(c4)OCCO5)n3)c(-c3cccc(C(F)(F)F)c3)nn2n1
– | 10 nM | – | c1cnn2ncc(-c3ccnc(Nc4ccc5c(c4)OCO5)n3)c2c1

The remaining lines, values behind:

SMILES | IC50 [1] | IC50 [2] | EC50 [3]
CC(C)c1ccc(Nc2nccc(-c3cnn4ncccc34)n2)cc1 [GW805758X] | 30 nM | 10 nM | –
c1ccc(Nc2nccc(-c3c(-c4ccccc4)nn4ncccc34)n2)cc1 | 10 nM | 3980 nM | 1600 nM
c1cnn2ncc(-c3ccnc(Nc4ccc5c(c4)OCCCO5)n3)c2c1 | – | 6 nM | –
Cc1ccc2c(-c3ccnc(Nc4ccc5c(c4)OCCO5)n3)c(-c3ccccc3)nn2n1 | 30 nM | > 20000 nM | –
FC(F)(F)c1cccc(-c2nn3ncccc3c2-c2ccnc(Nc3ccc(Cl)c(C(F)(F)F)c3)n2)c1 | 1000 nM | > 20000 nM | –
FC(F)(F)c1cc(Nc2nccc(-c3cnn4ncccc34)n2)ccc1Cl | – | 10 nM | 1000 nM
COc1ccc(Nc2nccc(-c3cnn4ncccc34)n2)cc1OC [PYRAZOLOPYRIDAZINE 2] | 10 nM | 50 nM | 1500 nM
FC(F)(F)c1ccc(-c2nn3ncccc3c2-c2ccnc(Nc3ccc4c(c3)OCCO4)n2)cc1 [GW828525X] | > 31600 nM | > 20000 nM | –
Cc1ccc2c(-c3ccnc(Nc4ccc5c(c4)OCCO5)n3)c(-c3ccc(F)cc3)nn2n1 | 10 nM | > 20000 nM | –
Cc1ccc2c(-c3ccnc(Nc4ccccc4)n3)c(-c3ccc(C(F)(F)F)cc3)nn2n1 | > 31600 nM | > 20000 nM | –
Cc1ccc2c(-c3ccnc(Nc4cccc(C(F)(F)F)c4)n3)c(-c3ccc(F)cc3)nn2n1 | 20 nM | > 20000 nM | 6800 nM
CCOc1ccc2c(-c3ccnc(Nc4cccc(C(F)(F)F)c4)n3)cnn2n1 [GW811761X] | 190 nM | 1990 nM | –
FC(F)(F)c1cc(Br)cc(Nc2nccc(-c3cnn4ncccc34)n2)c1 | – | 10 nM | –
Cc1ccc2c(-c3ccnc(Nc4ccccc4)n3)c(-c3ccccc3)nn2n1 | 50 nM | – | 3600 nM
Cc1ccc2c(-c3ccnc(Nc4cccc(C(F)(F)F)c4)n3)cnn2n1 | < 10 nM | 50 nM | –
FC(F)(F)c1cccc(-c2nn3ncccc3c2-c2ccnc(Nc3ccccc3)n2)c1 | 150 nM | > 20000 nM | –
N#Cc1ccc(Nc2nccc(-c3cnn4ncccc34)n2)cc1 | – | 1 nM | –
FC(F)(F)c1cccc(Nc2nccc(-c3c(-c4ccc(Cl)cc4)nn4ncccc34)n2)c1 | – | > 20000 nM | –
FC(F)(F)c1cc(Nc2nccc(-c3c(-c4ccc(Cl)cc4)nn4ncccc34)n2)ccc1Cl | – | > 20000 nM | –
Fc1ccc(-c2nn3ncccc3c2-c2ccnc(Nc3ccccc3)n2)cc1 | 20 nM | > 20000 nM | –

SMILES | IC50 [1] | IC50 [2] | EC50 [3]
COc1ccc(-c2nn3ncccc3c2-c2ccnc(Nc3ccccc3)n2)cc1 | – | > 20000 nM | –
c1ccc(-c2ccc3c(-c4ccnc(Nc5ccc6c(c5)OCCO6)n4)cnn3n2)cc1 | 120 nM | > 20000 nM | –
Cc1cc(C)cc(Nc2nccc(-c3cnn4ncccc34)n2)c1 | – | – | 1800 nM
CCCOc1ccc2c(-c3ccnc(Nc4cccc(C(F)(F)F)c4)n3)cnn2n1 | 790 nM | 1260 nM | –
COc1ccc2c(-c3ccnc(Nc4cc(C(F)(F)F)cc(C(F)(F)F)c4)n3)cnn2n1 | – | > 20000 nM | –
Cc1ccc2c(-c3ccnc(Nc4ccc(Cl)c(C(F)(F)F)c4)n3)c(-c3ccc(F)cc3)nn2n1 | 50 nM | > 20000 nM | –
Fc1ccc(-c2nn3ncccc3c2-c2ccnc(Nc3ccc(F)c(F)c3)n2)cc1 | – | > 20000 nM | –
FC(F)(F)c1cc(Nc2nccc(-c3c(-c4ccccc4)nn4ncccc34)n2)ccc1Cl | 20 nM | > 20000 nM | –
Fc1ccc(-c2nn3ncccc3c2-c2ccnc(Nc3cccc(C(F)(F)F)c3)n2)cc1 | 20 nM | > 20000 nM | 2800 nM
Fc1ccc(Nc2nccc(-c3c(-c4ccc(Cl)cc4)nn4ncccc34)n2)cc1F | 1000 nM | > 20000 nM | –
COCCOc1cnn2ncc(-c3ccnc(Nc4cccc(OC)c4)n3)c2c1 | 80 nM | > 20000 nM | –
Cc1ccc2c(-c3ccnc(Nc4ccc5c(c4)OCCO5)n3)c(-c3ccc(C(F)(F)F)cc3)nn2n1 [GW832467X] | > 31600 nM | > 20000 nM | –
c1ccc(Nc2nccc(-c3c(C4CC4)nn4ncccc34)n2)cc1 | – | 3980 nM | –
Fc1ccc(-c2nn3ncccc3c2-c2ccnc(Nc3ccc(Cl)c(C(F)(F)F)c3)n2)cc1 | 40 nM | > 20000 nM | –
COc1ccc(-c2nn3ncccc3c2-c2ccnc(Nc3ccc(Cl)c(C(F)(F)F)c3)n2)cc1 [GW829115X] | – | > 20000 nM | –
Cc1ccc2c(-c3ccnc(Nc4ccccc4)n3)c(-c3ccc(F)cc3)nn2n1 [GW833373X] | 20 nM | > 20000 nM | –
FC(F)(F)c1ccc(-c2nn3ncccc3c2-c2ccnc(Nc3ccc(Cl)c(C(F)(F)F)c3)n2)cc1 | > 31600 nM | > 20000 nM | –
COc1ccc2c(-c3ccnc(Nc4ccc(C#N)cc4)n3)cnn2n1 | 50 nM | 500 nM | –
Cc1ccc2c(-c3ccnc(Nc4ccc(F)c(F)c4)n3)c(-c3ccc(F)cc3)nn2n1 | 10 nM | > 20000 nM | –
